Reference: the supplement of paper PMC10307832

How the values were obtained:
Assay in all cases: relative viability (nuclei count vs DMSO), 5 days (fraction); higher = more cells survive
Tivantinib + Pictilisib = compound: O=C1NC(=O)[C@@H](c2cn3c4c(cccc24)CCC3)[C@@H]1c1c[nH]c2ccccc12 [Tivantinib] + CS(=O)(=O)N1CCN(Cc2cc3nc(-c4cccc5[nH]ncc45)nc(N4CCOCC4)c3s2)CC1 [Pictilisib] (partner 1 µM)
Method in brief: (§1)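 Nuclei were stained with Hoechst during a one-step fixation (final 0.05% Triton X-100, 1% formaldehyde, 1 ug/ml Hoechst) carried out 5 days after dosing, then counted on 4× images. The cells, lung cancer lines in 1536-well plates, had been dosed by pin tool the day after seeding with one drug alone or a fixed anchor-drug dose plus five library-drug doses (not always all listed) in √10 steps. Relative viability is the nuclei count in treated wells divided by that in vehicle wells, and each value is the median of duplicate plates.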

Tivantinib + Palbociclib = compound: O=C1NC(=O)[C@@H](c2cn3c4c(cccc24)CCC3)[C@@H]1c1c[nH]c2ccccc12 [Tivantinib] + CC(=O)c1c(C)c2cnc(Nc3ccc(N4CCNCC4)cn3)nc2n(C2CCCC2)c1=O [Palbociclib] (partner 0.5 µM)
Method in brief: as §1

Tivantinib + Olaparib = compound: O=C1NC(=O)[C@@H](c2cn3c4c(cccc24)CCC3)[C@@H]1c1c[nH]c2ccccc12 [Tivantinib] + O=C(c1cc(Cc2n[nH]c(=O)c3ccccc23)ccc1F)N1CCN(C(=O)C2CC2)CC1 [Olaparib] (partner 8 µM)
Method in brief: as §1

Crenolanib + Palbociclib = compound: CC1(COc2ccc3c(c2)ncn3-c2ccc3cccc(N4CCC(N)CC4)c3n2)COC1 [Crenolanib] + CC(=O)c1c(C)c2cnc(Nc3ccc(N4CCNCC4)cn3)nc2n(C2CCCC2)c1=O [Palbociclib] (partner 0.5 µM)
Method in brief: as §1

| Cell Line | relative viability (Tivantinib + Pictilisib; first compound 0.01 µM) | relative viability (Tivantinib + Pictilisib; first compound 0.03162 µM) | relative viability (Tivantinib + Pictilisib; first compound 0.1 µM) | relative viability (Tivantinib + Pictilisib; first compound 0.3162 µM) | relative viability (Tivantinib + Palbociclib; first compound 0.01 µM) | relative viability (Tivantinib + Palbociclib; first compound 0.03162 µM) | relative viability (Tivantinib + Palbociclib; first compound 0.1 µM) | relative viability (Tivantinib + Olaparib; first compound 0.01 µM) | relative viability (Tivantinib + Olaparib; first compound 0.03162 µM) | relative viability (Tivantinib + Olaparib; first compound 0.1 µM) | relative viability (Crenolanib + Palbociclib; first compound 0.01 µM) | relative viability (Crenolanib + Palbociclib; first compound 0.03162 µM) | relative viability (Crenolanib + Palbociclib; first compound 0.1 µM) | relative viability (Crenolanib + Palbociclib; first compound 0.3162 µM) | relative viability (Crenolanib + Palbociclib; first compound 1 µM) | relative viability (Tivantinib + Palbociclib; first compound 0.3162 µM) | relative viability (Tivantinib + Olaparib; first compound 0.3162 µM) |
| --- | --- | --- | --- | --- | --- | --- | --- | --- | --- | --- | --- | --- | --- | --- | --- | --- | --- |
| NCI-H322M | 0.505 | 0.481 | 0.467 | 0.4 | 0.519 | 0.484 | 0.475 | 0.718 | 0.754 | 0.777 | 0.497 | 0.483 | 0.482 | 0.479 | 0.496 | – | – |
| NCI-H358 | 0.406 | 0.284 | 0.418 | 0.294 | 0.172 | 0.16 | 0.151 | 0.633 | 0.63 | 0.505 | 0.164 | 0.131 | 0.136 | 0.135 | 0.125 | 0.0952 | 0.379 |
| NCI-H441 | 0.499 | 0.451 | 0.601 | 0.242 | 0.224 | 0.209 | 0.199 | 0.482 | 0.552 | 0.58 | 0.261 | 0.236 | 0.217 | 0.262 | 0.242 | 0.212 | 0.744 |
| NCI-H460 | 0.331 | 0.274 | 0.335 | 0.33 | 0.141 | 0.138 | 0.162 | 0.412 | 0.429 | 0.399 | 0.165 | 0.163 | 0.0988 | 0.15 | 0.145 | 0.135 | 0.39 |
| NCI-H520 | 0.292 | 0.237 | 0.268 | 0.262 | 0.263 | 0.213 | 0.2 | 0.347 | 0.339 | 0.291 | 0.252 | 0.214 | 0.289 | 0.267 | 0.309 | 0.203 | 0.37 |
| NCI-H647 | 0.45 | 0.341 | 0.409 | 0.371 | 0.433 | 0.347 | 0.356 | 0.425 | 0.638 | 0.401 | 0.401 | 0.341 | 0.434 | 0.363 | 0.51 | 0.409 | 0.638 |
| NCI-H650 | 0.835 | – | 0.817 | 0.8 | 0.392 | 0.32 | 0.314 | 0.41 | 0.432 | 0.356 | 0.308 | 0.346 | 0.33 | 0.32 | 0.355 | 0.323 | 0.34 |
| NCI-H661 | 0.472 | 0.394 | 0.387 | 0.269 | 0.453 | 0.395 | 0.397 | 0.742 | 0.744 | 0.706 | 0.433 | 0.416 | 0.424 | 0.408 | 0.43 | 0.315 | 0.699 |
| NCI-H727 | 0.36 | 0.368 | 0.447 | – | 0.619 | 0.528 | 0.714 | 0.746 | 0.785 | 0.593 | 0.72 | 0.676 | 0.678 | 0.646 | 0.699 | – | – |
| NCI-H838 | 0.442 | 0.479 | 0.389 | 0.373 | 0.245 | 0.212 | 0.188 | 0.775 | 0.77 | 0.71 | 0.244 | 0.232 | 0.21 | 0.232 | 0.205 | 0.207 | 0.816 |
| NCI-H1355 | 0.401 | 0.356 | 0.426 | 0.38 | 0.395 | 0.374 | 0.385 | 0.807 | 0.742 | 0.726 | 0.405 | 0.457 | 0.4 | 0.472 | 0.351 | 0.384 | 0.64 |
| NCI-H1395 | 0.581 | 0.595 | 0.571 | 0.61 | 0.708 | 0.625 | 0.632 | 0.513 | 0.469 | 0.44 | 0.622 | 0.628 | 0.677 | 0.635 | 0.628 | 0.527 | 0.482 |
| NCI-H1437 | 0.379 | 0.308 | 0.416 | 0.407 | 0.311 | 0.28 | 0.335 | 0.605 | 0.629 | 0.607 | 0.33 | 0.322 | 0.301 | 0.293 | 0.332 | 0.289 | 0.588 |
| NCI-H1650 | 0.561 | 0.389 | 0.589 | 0.605 | 0.325 | 0.322 | 0.426 | 0.832 | 0.817 | 0.678 | 0.397 | 0.281 | 0.324 | 0.308 | 0.387 | 0.254 | 0.624 |
| NCI-H1651 | 0.622 | 0.448 | 0.545 | 0.614 | 0.518 | 0.461 | 0.495 | 0.207 | 0.187 | 0.194 | 0.531 | 0.518 | 0.516 | 0.522 | 0.495 | 0.424 | 0.195 |
| NCI-H1666 | 0.552 | 0.352 | 0.43 | 0.401 | 0.691 | 0.596 | 0.66 | 0.734 | 0.736 | 0.696 | 0.657 | 0.678 | 0.594 | 0.63 | 0.694 | 0.681 | 0.731 |
